# Source: patent US8541598B2, “Biodegradable solvents for the chemical industry” (Dublin City University, priority 2007, dated 2013)
# Entries after “also recorded” stand apart in the source; their conditions may differ.
# What was measured:
# P. aeruginosa = experiment: Percentage kill of bacteria by KG20; assay type: cell-based, Pseudomonas aeruginosa
# From the text: (§1) A test reference study with 1-methyl-3-decyloxy-carbonyl methylimidazole bromide salt KG20, known to be toxic due to the long alkyl chain, has been completed to provide reference data. This experiment compares, for the same side chain length, the impact of the presence of the oxygen (e.g. KG15) on toxicity.
# B. subtilis = experiment: Percentage kill of bacteria by KG20; assay type: cell-based, Bacillus subtilis
# From the text: as §1
# Klebsiella sp. = experiment: Percentage kill of bacteria by KG20; assay type: cell-based
# From the text: as §1
# Salmonella sp. = experiment: Percentage kill of bacteria by KG20; assay type: cell-based
# From the text: as §1
# Enterococcus sp. = experiment: Percentage kill of bacteria by KG20; assay type: cell-based
# From the text: as §1
# [1] = test system: Pseudomonas aeruginosa, Escherichia coli, Klebsiella sp., Salmonella sp., Staphylococcus aureus, Enterococcus sp., Bacillus subtilis; experiment: Antimicrobial activity / minimum inhibitory concentrations on seven strains of bacteria; assay type: cell-based; conditions: seven strains of bacteria
# Procedure: Seven strains of bacteria were used in the assessment of the antimicrobial activity of the ILs claimed: 4 gram negative and three gram positive as shown below.
# A wide concentration range was tested (0-20000 μg/ml). The concentrations screened for antibacterial activity are generally from 2 μg/ml to 1000 μg/ml (Table 6). […] The concentration range screened for the ILs containing ethers was up to 20000 μg/ml. At these high concentrations a lack of antibacterial activity is a significant result.
# S. aureus = experiment: Percentage kill of bacteria by KG20; assay type: cell-based, Staphylococcus aureus
# From the text: as §1
# E. coli = experiment: Percentage kill of bacteria by KG20; assay type: cell-based, Escherichia coli
# From the text: as §1
# microbes = conditions: literature (Bodor et al.); cited from earlier work
compound,measurement,setting,value
"CCCCCCCCCCOC(=O)Cn1cc[n+](C)c1.[Br-] [KG20, 3-methyl-1-(decanoxycarbonylmethyl)imidazolium bromide]",Percentage kill,P. aeruginosa; 3.9 μg/ml,0%
same,Percentage kill,P. aeruginosa; 7.8 μg/ml,0%
same,Percentage kill,P. aeruginosa; 15.62 μg/ml,0%
same,Percentage kill,P. aeruginosa; 31.25 μg/ml,6%
same,Percentage kill,P. aeruginosa; 62.5 μg/ml,0%
same,Percentage kill,P. aeruginosa; 125 μg/ml,55.5%
same,Percentage kill,P. aeruginosa; 250 μg/ml,82%
same,Percentage kill,P. aeruginosa; 500 μg/ml,82%
same,Percentage kill,P. aeruginosa; 1000 μg/ml,100%
same,Percentage kill,B. subtilis; 3.9 μg/ml,0%
same,Percentage kill,B. subtilis; 7.8 μg/ml,0%
same,Percentage kill,B. subtilis; 15.62 μg/ml,0%
same,Percentage kill,B. subtilis; 31.25 μg/ml,0%
same,Percentage kill,B. subtilis; 62.5 μg/ml,0%
same,Percentage kill,B. subtilis; 125 μg/ml,80.2%
same,Percentage kill,B. subtilis; 250 μg/ml,81.5%
same,Percentage kill,B. subtilis; 500 μg/ml,83.2%
same,Percentage kill,B. subtilis; 1000 μg/ml,100%
same,Percentage kill,Klebsiella sp.; 3.9 μg/ml,0%
same,Percentage kill,Klebsiella sp.; 7.8 μg/ml,0%
same,Percentage kill,Klebsiella sp.; 15.62 μg/ml,0%
same,Percentage kill,Klebsiella sp.; 31.25 μg/ml,0%
same,Percentage kill,Klebsiella sp.; 62.5 μg/ml,7%
same,Percentage kill,Klebsiella sp.; 125 μg/ml,21%
same,Percentage kill,Klebsiella sp.; 250 μg/ml,64%
same,Percentage kill,Klebsiella sp.; 500 μg/ml,68.2%
same,Percentage kill,Klebsiella sp.; 1000 μg/ml,91.8%
same,Percentage kill,Salmonella sp.; 3.9 μg/ml,0%
same,Percentage kill,Salmonella sp.; 7.8 μg/ml,0%
same,Percentage kill,Salmonella sp.; 15.62 μg/ml,0%
same,Percentage kill,Salmonella sp.; 31.25 μg/ml,0%
same,Percentage kill,Salmonella sp.; 62.5 μg/ml,10%
same,Percentage kill,Salmonella sp.; 125 μg/ml,58%
same,Percentage kill,Salmonella sp.; 250 μg/ml,73.5%
same,Percentage kill,Salmonella sp.; 500 μg/ml,88%
same,Percentage kill,Salmonella sp.; 1000 μg/ml,86%
same,Percentage kill,Enterococcus sp.; 3.9 μg/ml,6.5%
same,Percentage kill,Enterococcus sp.; 7.8 μg/ml,6%
same,Percentage kill,Enterococcus sp.; 15.62 μg/ml,23%
same,Percentage kill,Enterococcus sp.; 31.25 μg/ml,18.7%
same,Percentage kill,Enterococcus sp.; 62.5 μg/ml,48.7%
same,Percentage kill,Enterococcus sp.; 125 μg/ml,49.5%
same,Percentage kill,Enterococcus sp.; 250 μg/ml,83.4%
same,Percentage kill,Enterococcus sp.; 500 μg/ml,84%
same,Percentage kill,Enterococcus sp.; 1000 μg/ml,96.4%
same,toxicity / antibacterial activity in words,[1],toxic to all the different bacteria screened; also recorded: potent antibacterial
same,Percentage kill,S. aureus; 3.9 μg/ml,66%
same,Percentage kill,S. aureus; 7.8 μg/ml,90%
same,Percentage kill,S. aureus; 15.62 μg/ml,88.2%
same,Percentage kill,S. aureus; 31.25 μg/ml,86.4%
same,Percentage kill,S. aureus; 62.5 μg/ml,90.3%
same,Percentage kill,S. aureus; 125 μg/ml,80.7%
same,Percentage kill,S. aureus; 250 μg/ml,93.8%
same,Percentage kill,S. aureus; 500 μg/ml,96%
same,Percentage kill,E. coli; 3.9 μg/ml,10%
same,Percentage kill,E. coli; 7.8 μg/ml,8.5%
same,Percentage kill,E. coli; 15.62 μg/ml,17%
same,Percentage kill,E. coli; 31.25 μg/ml,28%
same,Percentage kill,E. coli; 62.5 μg/ml,37%
same,Percentage kill,E. coli; 125 μg/ml,92%
same,Percentage kill,E. coli; 250 μg/ml,92%
same,Percentage kill,E. coli; 500 μg/ml,82%
same,Percentage kill,E. coli; 1000 μg/ml,91%
"CCCCCCCCCCCC(=O)OCn1cc[n+](C)c1.[Cl-] [compound 6, 1-[(n-Dodecanoyloxy)methyl]-3-methylimidazolium Chloride]",antimicrobial activity in words,microbes,effective antimicrobial activity at ppm concentrations; also recorded: potent antibacterials
